What was measured:
[1] = system: Mycobacterium tuberculosis Erdman (autoluminescent); assay: total FIC50 (Loewe) at 50% inhibition, three-drug combination (log2); higher = more antagonistic
Description: (§1)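 DiaMOND equipotent three-drug combination dose responses (10 doses, 1.5- or 2-fold spacing, centred on IC90) against autoluminescent M. tuberculosis Erdman in 8 in vitro models. Read-out is OD600, or luminescence for the intracellular and dormancy models, normalised to untreated wells. Hill-fit Einf, AUC25 and GRinf are potency metrics; FIC50 and FIC90 are total Loewe fractional inhibitory concentrations as log2 (negative = synergy).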

[2] = system: Mycobacterium tuberculosis Erdman (autoluminescent); assay: total FIC90 (Loewe) at 90% inhibition, three-drug combination (log2); higher = more antagonistic
Description: as §1

[3] = system: Mycobacterium tuberculosis Erdman (autoluminescent); assay: Einf, fitted maximum growth inhibition of three-drug combination (fraction); higher = stronger maximal inhibition
Description: as §1

[4] = system: Mycobacterium tuberculosis Erdman (autoluminescent); assay: AUC25, normalised area under dose response up to IC25 (three-drug combination) (fraction (0-1)); higher = more potent at low dose
Description: as §1

[5] = system: Mycobacterium tuberculosis Erdman (autoluminescent); assay: GRinf, maximum normalised growth rate inhibition (three-drug combination) (unitless (-1 to 1)); higher = less effect (negative = killing)
Description: as §1

CC(C)/N=c1\cc2n(-c3ccc(Cl)cc3)c3ccccc3nc-2cc1Nc1ccc(Cl)cc1 [clofazimine] + NNC(=O)c1ccncc1 [isoniazid] + CO[C@H]1/C=C/O[C@@]2(C)Oc3c(C)c(O)c4c(O)c(c(/C=N/N5CCN(C6CCCC6)CC5)c(O)c4c3C2=O)NC(=O)/C(C)=C\C=C\[C@H](C)[C@H](O)[C@@H](C)[C@@H](O)[C@@H](C)[C@H](OC(C)=O)[C@@H]1C [rifapentine]
Conditions | AUC25, [4] | Einf, [3] | GRinf, [5] | total FIC50, [1] | total FIC90, [2]
in vitro model: acidic pH 5.7, time point: constant (~7 days, model-specific) | 0.0883 | 0.85 | -0.0449 | 0.415 | –
in vitro model: acidic pH 5.7, time point: terminal (~4-5 doublings, model-specific) | 0.09 | 0.989 | -0.185 | 0.259 | 0.468
in vitro model: intracellular J774, time point: constant = terminal | – | 0.954 | -0.131 | – | 0.169

Conditions | AUC25, [4] | Einf, [3] | GRinf, [5] | total FIC50, [1] | total FIC90, [2]
in vitro model: butyrate, time point: constant (~7 days, model-specific) | 0.0986 | 0.951 | -0.088 | 0.508 | 0.999
in vitro model: butyrate, time point: terminal (~4-5 doublings, model-specific) | 0.0792 | 0.98 | -0.0855 | 0.521 | 0.588
in vitro model: cholesterol 0.05 mM, time point: constant (~7 days, model-specific) | 0.118 | 0.666 | 0.0951 | 0.541 | –
in vitro model: cholesterol 0.05 mM, time point: terminal (~4-5 doublings, model-specific) | 0.0787 | 0.8 | -0.0213 | 1.11 | 1.88
in vitro model: cholesterol-high 0.2 mM, time point: constant (~7 days, model-specific) | 0.0889 | 0.959 | -0.471 | 0.542 | –
in vitro model: cholesterol-high 0.2 mM, time point: terminal (~4-5 doublings, model-specific) | 0.0744 | 0.999 | -0.743 | 0.993 | 0.67
in vitro model: dormancy (butyrate + nitrate, low O2), time point: constant (~7 days, model-specific) | 0.0787 | 0.9 | 0.166 | 0.0637 | -0.201
in vitro model: dormancy (butyrate + nitrate, low O2), time point: terminal (~4-5 doublings, model-specific) | 0.0623 | 0.989 | -0.337 | 0.174 | 0.32
in vitro model: standard 7H9 glycerol, time point: constant = terminal | 0.111 | 0.942 | -0.0519 | 0.0163 | 1.07
in vitro model: valerate, time point: constant (~7 days, model-specific) | 0.118 | 0.858 | 0.0326 | 0.882 | –
in vitro model: valerate, time point: terminal (~4-5 doublings, model-specific) | 0.0644 | 0.907 | 0.0296 | 0.418 | -0.138

CC(C)/N=c1\cc2n(-c3ccc(Cl)cc3)c3ccccc3nc-2cc1Nc1ccc(Cl)cc1 [clofazimine] + NNC(=O)c1ccncc1 [isoniazid] + CO[C@H]1/C=C/O[C@@]2(C)Oc3c(C)c(O)c4c(O)c(c(/C=N/N5CCN(C)CC5)c(O)c4c3C2=O)NC(=O)/C(C)=C\C=C\[C@H](C)[C@H](O)[C@@H](C)[C@@H](O)[C@@H](C)[C@H](OC(C)=O)[C@@H]1C [rifampicin]
Conditions | AUC25, [4] | Einf, [3] | GRinf, [5] | total FIC50, [1] | total FIC90, [2]
in vitro model: acidic pH 5.7, time point: constant (~7 days, model-specific) | 0.0827 | 0.859 | -0.00905 | 0.524 | –
in vitro model: acidic pH 5.7, time point: terminal (~4-5 doublings, model-specific) | 0.0711 | 0.977 | -0.102 | 0.542 | 0.223
in vitro model: intracellular J774, time point: constant = terminal | – | 0.983 | -0.28 | – | 0.112

Conditions | AUC25, [4] | Einf, [3] | GRinf, [5] | total FIC50, [1] | total FIC90, [2]
in vitro model: butyrate, time point: constant (~7 days, model-specific) | 0.107 | 0.958 | -0.146 | 0.388 | 0.605
in vitro model: butyrate, time point: terminal (~4-5 doublings, model-specific) | 0.082 | 0.978 | -0.104 | 0.318 | 0.248
in vitro model: cholesterol 0.05 mM, time point: constant (~7 days, model-specific) | 0.102 | 0.662 | 0.064 | 0.74 | –
in vitro model: cholesterol 0.05 mM, time point: terminal (~4-5 doublings, model-specific) | 0.0787 | 0.896 | 0.0504 | 1.25 | -0.29
in vitro model: cholesterol-high 0.2 mM, time point: constant (~7 days, model-specific) | 0.0653 | 0.891 | -0.205 | 0.286 | –
in vitro model: cholesterol-high 0.2 mM, time point: terminal (~4-5 doublings, model-specific) | 0.0563 | 0.996 | -0.68 | 0.929 | 0.197
in vitro model: dormancy (butyrate + nitrate, low O2), time point: constant (~7 days, model-specific) | 0.0885 | 0.876 | 0.253 | -0.0155 | -0.596
in vitro model: dormancy (butyrate + nitrate, low O2), time point: terminal (~4-5 doublings, model-specific) | 0.0839 | 0.988 | -0.19 | -0.403 | 0.28
in vitro model: standard 7H9 glycerol, time point: constant = terminal | 0.112 | 0.945 | -0.018 | -0.19 | 0.0305
in vitro model: valerate, time point: constant (~7 days, model-specific) | 0.112 | 0.866 | -0.116 | 0.565 | –
in vitro model: valerate, time point: terminal (~4-5 doublings, model-specific) | 0.0604 | 0.918 | 0.0831 | 0.286 | 0.147

CC(C)/N=c1\cc2n(-c3ccc(Cl)cc3)c3ccccc3nc-2cc1Nc1ccc(Cl)cc1 [clofazimine] + NNC(=O)c1ccncc1 [isoniazid] + COc1c(N2C[C@@H]3CCCN[C@@H]3C2)c(F)cc2c(=O)c(C(=O)O)cn(C3CC3)c12 [moxifloxacin]
Conditions | AUC25, [4] | Einf, [3] | GRinf, [5] | total FIC50, [1] | total FIC90, [2]
in vitro model: acidic pH 5.7, time point: constant (~7 days, model-specific) | 0.148 | 0.438 | 0.301 | – | –
in vitro model: acidic pH 5.7, time point: terminal (~4-5 doublings, model-specific) | 0.0974 | 0.923 | -0.33 | 0.581 | 0.708
in vitro model: intracellular J774, time point: constant = terminal | – | 1 | -0.424 | – | 0.642

Conditions | AUC25, [4] | Einf, [3] | GRinf, [5] | total FIC50, [1] | total FIC90, [2]
in vitro model: butyrate, time point: constant (~7 days, model-specific) | 0.0935 | 0.949 | -0.0926 | 0.57 | 1.04
in vitro model: butyrate, time point: terminal (~4-5 doublings, model-specific) | 0.0779 | 0.981 | -0.0848 | 0.531 | 0.768
in vitro model: cholesterol 0.05 mM, time point: constant (~7 days, model-specific) | 0.131 | 0.707 | -0.174 | 0.411 | –
in vitro model: cholesterol 0.05 mM, time point: terminal (~4-5 doublings, model-specific) | 0.119 | 0.919 | -0.228 | 0.344 | 0.0839
in vitro model: cholesterol-high 0.2 mM, time point: constant (~7 days, model-specific) | 0.102 | 0.943 | -0.266 | 0.253 | 0.868
in vitro model: cholesterol-high 0.2 mM, time point: terminal (~4-5 doublings, model-specific) | 0.0858 | 1 | -0.61 | 0.464 | 0.399
in vitro model: dormancy (butyrate + nitrate, low O2), time point: constant (~7 days, model-specific) | 0.094 | 0.929 | 0.151 | 0.252 | -0.33
in vitro model: dormancy (butyrate + nitrate, low O2), time point: terminal (~4-5 doublings, model-specific) | 0.0919 | 0.988 | -0.177 | 0.0561 | 1.09
in vitro model: standard 7H9 glycerol, time point: constant = terminal | 0.0829 | 0.977 | -0.209 | 0.374 | 0.44
in vitro model: valerate, time point: constant (~7 days, model-specific) | 0.079 | 0.84 | 0.0938 | 0.474 | –
in vitro model: valerate, time point: terminal (~4-5 doublings, model-specific) | 0.0672 | 0.917 | 0.0935 | 0.256 | 0.99

Source: the supplement of paper PMC8617591
